≈ marks a conversion by molar mass, not a printed value.
What was measured:
[1] = test system: Plasmodium falciparum; assay: Antimicrobial activity against Plasmodium falciparum subclone 3A17 containing 2 copy number of pfmdr1-containing amplicon on chromosome 5 assessed as growth inhibition by [3H]hypoxanthine incorporation assay; assay type: functional, organism-based
[2] = test system: Plasmodium falciparum; assay: Ratio of IC50 for Plasmodium falciparum subclone 3A17 containing 2 copy number of pfmdr1-containing amplicon on chromosome 5 to IC50 for wild type Plasmodium falciparum W2; assay type: functional
[3] = test system: Plasmodium falciparum; assay: Ratio of IC50 for Plasmodium falciparum clone W2AL80 containing 3 copy number of pfmdr1-containing amplicon on chromosome 5 to IC50 for wild type Plasmodium falciparum W2; assay type: functional
[4] = test system: Plasmodium falciparum; assay: Ratio of IC90 for Plasmodium falciparum subclone 3C1 containing 3 copy number of pfmdr1-containing amplicon on chromosome 5 to IC90 for wild type Plasmodium falciparum W2; assay type: functional
[5] = test system: Plasmodium falciparum; assay: Ratio of IC50 for Plasmodium falciparum subclone 3A12 containing 2 copy number of pfmdr1-containing amplicon on chromosome 5 to IC50 for wild type Plasmodium falciparum W2; assay type: functional
[6] = test system: Plasmodium falciparum; assay: Antimicrobial activity against compound-sensitive Plasmodium falciparum clone W2 assessed as growth inhibition by [3H]hypoxanthine incorporation assay; assay type: functional, organism-based
[7] = test system: Plasmodium falciparum; assay: Antimicrobial activity against Plasmodium falciparum subclone 3A3 containing 1 copy number of pfmdr1-containing amplicon on chromosome 5 assessed as growth inhibition by [3H]hypoxanthine incorporation assay; assay type: functional, organism-based
[8] = test system: Plasmodium falciparum; assay: Antimicrobial activity against Plasmodium falciparum subclone 3C18 containing 3 copy number of pfmdr1-containing amplicon on chromosome 5 assessed as growth inhibition by [3H]hypoxanthine incorporation assay; assay type: functional, organism-based
[9] = test system: Plasmodium falciparum; assay: Ratio of IC50 for Plasmodium falciparum subclone 3C18 containing 3 copy number of pfmdr1-containing amplicon on chromosome 5 to IC50 for wild type Plasmodium falciparum W2; assay type: functional
[10] = test system: Plasmodium falciparum; assay: Antimicrobial activity against drug pre-treated Plasmodium falciparum clone W2AL80 containing 3 copy number of pfmdr1-containing amplicon on chromosome 5 assessed as growth inhibition by [3H]hypoxanthine incorporation assay; assay type: functional, organism-based
[11] = test system: Plasmodium falciparum; assay: Ratio of IC50 for Plasmodium falciparum subclone 3C1 containing 3 copy number of pfmdr1-containing amplicon on chromosome 5 to IC50 for wild type Plasmodium falciparum W2; assay type: functional
[12] = test system: Plasmodium falciparum; assay: Ratio of IC90 for Plasmodium falciparum clone W2AL80 containing 3 copy number of pfmdr1-containing amplicon on chromosome 5 to IC90 for wild type Plasmodium falciparum W2; assay type: functional
[13] = test system: Plasmodium falciparum; assay: Antimicrobial activity against Plasmodium falciparum subclone 3A8 containing 3 copy number of pfmdr1-containing amplicon on chromosome 5 assessed as growth inhibition by [3H]hypoxanthine incorporation assay; assay type: functional, organism-based
[14] = test system: Plasmodium falciparum; assay: Ratio of IC90 for Plasmodium falciparum subclone 3A26 containing 3 copy number of pfmdr1-containing amplicon on chromosome 5 to IC90 for wild type Plasmodium falciparum W2; assay type: functional
[15] = test system: Plasmodium falciparum; assay: Ratio of IC90 for Plasmodium falciparum subclone 3C20 containing 2 copy number of pfmdr1-containing amplicon on chromosome 5 to IC90 for wild type Plasmodium falciparum W2; assay type: functional
[16] = test system: Plasmodium falciparum; assay: Ratio of IC90 for Plasmodium falciparum subclone 3A12 containing 2 copy number of pfmdr1-containing amplicon on chromosome 5 to IC90 for wild type Plasmodium falciparum W2; assay type: functional
[17] = test system: Plasmodium falciparum; assay: Ratio of IC90 for Plasmodium falciparum subclone 3A7 containing 4 copy number of pfmdr1-containing amplicon on chromosome 5 to IC90 for wild type Plasmodium falciparum W2; assay type: functional
[18] = test system: Plasmodium falciparum; assay: Antimicrobial activity against Plasmodium falciparum subclone 3A12 containing 2 copy number of pfmdr1-containing amplicon on chromosome 5 assessed as growth inhibition by [3H]hypoxanthine incorporation assay; assay type: functional, organism-based
[19] = test system: Plasmodium falciparum; assay: Ratio of IC90 for Plasmodium falciparum subclone 3C18 containing 3 copy number of pfmdr1-containing amplicon on chromosome 5 to IC90 for wild type Plasmodium falciparum W2; assay type: functional
[20] = test system: Plasmodium falciparum; assay: Antimicrobial activity against Plasmodium falciparum subclone 3C10 containing 2 copy number of pfmdr1-containing amplicon on chromosome 5 assessed as growth inhibition by [3H]hypoxanthine incorporation assay; assay type: functional, organism-based
[21] = test system: Plasmodium falciparum; assay: Ratio of IC50 for Plasmodium falciparum subclone 3A7 containing 4 copy number of pfmdr1-containing amplicon on chromosome 5 to IC50 for wild type Plasmodium falciparum W2; assay type: functional
[22] = test system: Plasmodium falciparum; assay: Antimicrobial activity against Plasmodium falciparum subclone 3A26 containing 3 copy number of pfmdr1-containing amplicon on chromosome 5 assessed as growth inhibition by [3H]hypoxanthine incorporation assay; assay type: functional, organism-based
[23] = test system: Plasmodium falciparum; assay: Antimicrobial activity against Plasmodium falciparum subclone 3C20 containing 2 copy number of pfmdr1-containing amplicon on chromosome 5 assessed as growth inhibition by [3H]hypoxanthine incorporation assay; assay type: functional, organism-based
[24] = test system: Plasmodium falciparum; assay: Ratio of IC90 for Plasmodium falciparum subclone 3A17 containing 2 copy number of pfmdr1-containing amplicon on chromosome 5 to IC90 for wild type Plasmodium falciparum W2; assay type: functional
[25] = test system: Plasmodium falciparum; assay: Ratio of IC90 for Plasmodium falciparum subclone 3C10 containing 2 copy number of pfmdr1-containing amplicon on chromosome 5 to IC90 for wild type Plasmodium falciparum W2; assay type: functional
[26] = test system: Plasmodium falciparum; assay: Ratio of IC90 for Plasmodium falciparum subclone 3A1 containing 1 copy number of pfmdr1-containing amplicon on chromosome 5 to IC90 for wild type Plasmodium falciparum W2; assay type: functional
[27] = test system: Plasmodium falciparum; assay: Ratio of IC90 for Plasmodium falciparum subclone 3A8 containing 3 copy number of pfmdr1-containing amplicon on chromosome 5 to IC90 for wild type Plasmodium falciparum W2; assay type: functional
[28] = test system: Plasmodium falciparum; assay: Antimicrobial activity against Plasmodium falciparum subclone 3C1 containing 3 copy number of pfmdr1-containing amplicon on chromosome 5 assessed as growth inhibition by [3H]hypoxanthine incorporation assay; assay type: functional, organism-based
[29] = test system: Plasmodium falciparum; assay: Ratio of IC50 for Plasmodium falciparum subclone 3C20 containing 2 copy number of pfmdr1-containing amplicon on chromosome 5 to IC50 for wild type Plasmodium falciparum W2; assay type: functional
[30] = test system: Plasmodium falciparum; assay: Ratio of IC90 for Plasmodium falciparum subclone 3A3 containing 1 copy number of pfmdr1-containing amplicon on chromosome 5 to IC90 for wild type Plasmodium falciparum W2; assay type: functional
[31] = test system: Plasmodium falciparum; assay: Ratio of IC50 for Plasmodium falciparum subclone 3A26 containing 3 copy number of pfmdr1-containing amplicon on chromosome 5 to IC50 for wild type Plasmodium falciparum W2; assay type: functional
[32] = test system: Plasmodium falciparum; assay: Ratio of IC50 for Plasmodium falciparum subclone 3A8 containing 3 copy number of pfmdr1-containing amplicon on chromosome 5 to IC50 for wild type Plasmodium falciparum W2; assay type: functional
[33] = test system: Plasmodium falciparum; assay: Antimicrobial activity against Plasmodium falciparum subclone 3A7 containing 4 copy number of pfmdr1-containing amplicon on chromosome 5 assessed as growth inhibition by [3H]hypoxanthine incorporation assay; assay type: functional, organism-based
[34] = test system: Plasmodium falciparum; assay: Ratio of IC50 for Plasmodium falciparum subclone 3A1 containing 1 copy number of pfmdr1-containing amplicon on chromosome 5 to IC50 for wild type Plasmodium falciparum W2; assay type: functional
[35] = test system: Plasmodium falciparum; assay: Ratio of IC50 for Plasmodium falciparum subclone 3C10 containing 2 copy number of pfmdr1-containing amplicon on chromosome 5 to IC50 for wild type Plasmodium falciparum W2; assay type: functional
[36] = test system: Plasmodium falciparum; assay: Ratio of IC50 for Plasmodium falciparum subclone 3A3 containing 1 copy number of pfmdr1-containing amplicon on chromosome 5 to IC50 for wild type Plasmodium falciparum W2; assay type: functional
[37] = test system: Plasmodium falciparum; assay: Antimicrobial activity against Plasmodium falciparum subclone 3A1 containing 1 copy number of pfmdr1-containing amplicon on chromosome 5 assessed as growth inhibition by [3H]hypoxanthine incorporation assay; assay type: functional, organism-based

OC(c1cc(C(F)(F)F)nc2c(C(F)(F)F)cccc12)C1CCCCN1 (stereo unspecified) [MEFLOQUINE]
IC50 [1]: 0.019 µg/mL (≈ 0.0501 µM) | IC90 [1]: 0.0954 µg/mL (≈ 0.252 µM) | Ratio IC50 [2]: 2.6 | Ratio IC50 [3]: 2.3 | Ratio [4]: 5.9 | Ratio IC50 [5]: 1.7 | IC50 [6]: 0.00772 µg/mL (≈ 0.0204 µM) | IC90 [6]: 0.0145 µg/mL (≈ 0.0383 µM) | IC90 [7]: 0.0406 µg/mL (≈ 0.107 µM) | IC90 [8]: 0.102 µg/mL (≈ 0.269 µM) | Ratio IC50 [9]: 2.9 | IC90 [10]: 0.104 µg/mL (≈ 0.274 µM) | Ratio IC50 [11]: 3.1 | Ratio [12]: 7.2 | IC90 [13]: 0.0756 µg/mL (≈ 0.2 µM) | Ratio [14]: 5.2 | Ratio [15]: 5.7 | Ratio [16]: 3.6 | Ratio [17]: 5.4 | IC90 [18]: 0.0519 µg/mL (≈ 0.137 µM) | Ratio [19]: 7 | IC90 [20]: 0.0821 µg/mL (≈ 0.217 µM) | Ratio IC50 [21]: 3.8 | IC50 [22]: 0.0191 µg/mL (≈ 0.0504 µM) | IC90 [22]: 0.075 µg/mL (≈ 0.198 µM) | IC90 [23]: 0.0833 µg/mL (≈ 0.22 µM) | Ratio [24]: 6.6 | Ratio [25]: 5.9 | Ratio [26]: 1.8 | Ratio [27]: 5.2 | IC90 [28]: 0.0849 µg/mL (≈ 0.224 µM) | Ratio IC50 [29]: 2.2 | Ratio [30]: 2.8 | Ratio IC50 [31]: 2.5 | Ratio IC50 [32]: 2.6 | IC90 [33]: 0.0778 µg/mL (≈ 0.206 µM) | Ratio IC50 [34]: 1 | Ratio IC50 [35]: 3 | Ratio IC50 [36]: 1.7 | IC50 [37]: 0.00738 µg/mL (≈ 0.0195 µM) | IC90 [37]: 0.0261 µg/mL (≈ 0.069 µM)

C[C@@H]1[C@H](OCc2ccc(C(=O)O)cc2)O[C@@H]2O[C@@]3(C)CC[C@@H]4[C@@H](C)CC[C@@H]1[C@]24OO3 [ARTELINIC ACID]
IC50 [1]: 0.0481 µg/mL (≈ 0.115 µM) | IC90 [1]: 0.0867 µg/mL (≈ 0.207 µM) | Ratio IC50 [2]: 12.5 | Ratio IC50 [3]: 12.7 | Ratio [4]: 18.5 | Ratio IC50 [5]: 11 | IC50 [6]: 0.00386 µg/mL (≈ 0.00922 µM) | IC90 [6]: 0.00544 µg/mL (≈ 0.013 µM) | IC50 [7]: 0.034 µg/mL (≈ 0.0813 µM) | IC90 [7]: 0.0504 µg/mL (≈ 0.12 µM) | IC50 [8]: 0.0814 µg/mL (≈ 0.194 µM) | IC90 [8]: 0.111 µg/mL (≈ 0.265 µM) | Ratio IC50 [9]: 21.1 | IC50 [10]: 0.0488 µg/mL (≈ 0.117 µM) | IC90 [10]: 0.123 µg/mL (≈ 0.295 µM) | Ratio IC50 [11]: 18.9 | Ratio [12]: 22.7 | IC50 [13]: 0.0629 µg/mL (≈ 0.15 µM) | IC90 [13]: 0.12 µg/mL (≈ 0.286 µM) | Ratio [14]: 20.7 | Ratio [15]: 14.7 | Ratio [16]: 20.9 | Ratio [17]: 17 | IC50 [18]: 0.0423 µg/mL (≈ 0.101 µM) | IC90 [18]: 0.114 µg/mL (≈ 0.271 µM) | Ratio [19]: 20.4 | IC50 [20]: 0.0395 µg/mL (≈ 0.0945 µM) | IC90 [20]: 0.0936 µg/mL (≈ 0.224 µM) | Ratio IC50 [21]: 12.1 | IC50 [22]: 0.052 µg/mL (≈ 0.124 µM) | IC90 [22]: 0.113 µg/mL (≈ 0.269 µM) | IC50 [23]: 0.0424 µg/mL (≈ 0.101 µM) | IC90 [23]: 0.08 µg/mL (≈ 0.191 µM) | Ratio [24]: 15.9 | Ratio [25]: 17.2 | Ratio [26]: 9.8 | Ratio [27]: 22 | IC50 [28]: 0.0731 µg/mL (≈ 0.175 µM) | IC90 [28]: 0.1 µg/mL (≈ 0.24 µM) | Ratio IC50 [29]: 11 | Ratio [30]: 9.3 | Ratio IC50 [31]: 13.5 | Ratio IC50 [32]: 16.3 | IC50 [33]: 0.0467 µg/mL (≈ 0.112 µM) | IC90 [33]: 0.0924 µg/mL (≈ 0.221 µM) | Ratio IC50 [34]: 7.6 | Ratio IC50 [35]: 10.2 | Ratio IC50 [36]: 8.8 | IC50 [37]: 0.0294 µg/mL (≈ 0.0703 µM) | IC90 [37]: 0.0531 µg/mL (≈ 0.127 µM)
